Experimental findings from patent publication US4628083A, “2-hydroxy-5-(arylazo)-benzene alkanoic acids” (Pharmacia AB, priority 1985, dated 1986) are described below.

Where “and” joins values, the source holds several entries; their conditions need not be identical. Equal entries are not always repeated.

Format in all cases: biochemical
Assay [1] deals with T1, prostaglandin-15-dehydrogenase (Homo sapiens, UniProt P15428).
T1 construct: cellfree preparations of different organs (containing prostaglandin-15-dehydrogenase); from tissue; host or cells: human placenta
T1 sequence (P15428 1-266): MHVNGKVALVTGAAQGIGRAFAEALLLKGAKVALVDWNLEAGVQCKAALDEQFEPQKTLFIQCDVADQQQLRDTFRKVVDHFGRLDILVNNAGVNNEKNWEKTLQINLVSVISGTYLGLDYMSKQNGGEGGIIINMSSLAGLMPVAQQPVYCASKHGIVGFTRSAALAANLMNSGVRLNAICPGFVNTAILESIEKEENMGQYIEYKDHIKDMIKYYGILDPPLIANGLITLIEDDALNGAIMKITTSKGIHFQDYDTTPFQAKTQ
As to the kind of experiment: Inhibition of prostaglandin F2α inactivation in cell-free human placenta preparation. The conditions noted are these: for IC50: Inhibition 50 %, read-out: concentration giving 50% inhibition of the prostaglandin inactivation (converted). How it is done:
(§1) Radioactive prostaglandin F2α was incubated with cellfree preparations of different organs (containing prostaglandin-15-dehydrogenase) according to Hoult and Moore, British Journal of Pharmacology, Vol. 61 (1977), p. 615. After a suitable time the prostaglandins were extracted and separated by chromatography. Then the amount of remaining prostaglandin F2α was compared with the amounts of metabolites. The inhibiting effect was obtained by the addition of the compounds according to the invention during the incubation and comparison with control experiments without such addition. The results may be represented either as a concentration giving 50% inhibition of the prostaglandin inactivation, or as an inhibition in percent at a certain concentration of the studied compound. In the following table the results for some compounds according to the invention are shown compared to the known drug sulfasalazine.

Assay [2] concerns the target T2, prostaglandin-15-dehydrogenase (Rattus norvegicus, UniProt O08699).
T2 construct: cellfree preparations of different organs (containing prostaglandin-15-dehydrogenase); from tissue
T2 sequence (O08699 1-266): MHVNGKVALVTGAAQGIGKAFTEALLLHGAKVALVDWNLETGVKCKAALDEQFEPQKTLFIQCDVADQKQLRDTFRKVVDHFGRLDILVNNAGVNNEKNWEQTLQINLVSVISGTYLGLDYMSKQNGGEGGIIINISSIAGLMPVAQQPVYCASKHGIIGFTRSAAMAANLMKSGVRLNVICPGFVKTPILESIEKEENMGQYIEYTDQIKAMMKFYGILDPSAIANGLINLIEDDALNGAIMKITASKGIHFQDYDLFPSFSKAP
Description: Inhibition of prostaglandin F2α inactivation in cell-free rat organ preparations. The conditions noted are these: for inhibition at 50 µM: 50 μM (A 19,9 μg/ml; C 12,8 μg/ml); for inhibition at 2 µM: 2 μM (0,82 μg/ml). On the procedure: as §1

The target of assay [3] is T3, prostaglandin-15-dehydrogenase (Cavia porcellus, UniProt P70684).
T3 construct: cellfree preparations of different organs (containing prostaglandin-15-dehydrogenase); from tissue
T3 sequence (P70684 1-265): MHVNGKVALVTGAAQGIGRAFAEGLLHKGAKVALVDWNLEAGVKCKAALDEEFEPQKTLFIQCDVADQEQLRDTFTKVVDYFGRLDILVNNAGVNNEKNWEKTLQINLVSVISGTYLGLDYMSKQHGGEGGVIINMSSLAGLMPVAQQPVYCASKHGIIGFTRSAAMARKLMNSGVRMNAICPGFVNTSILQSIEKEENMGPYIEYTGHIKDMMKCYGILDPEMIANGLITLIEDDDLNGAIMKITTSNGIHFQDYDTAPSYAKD
As to the kind of experiment: Inhibition of prostaglandin F2α inactivation in cell-free guinea pig organ preparations. The conditions noted are these: for inhibition at 2 µM: 2 μM (0,82 μg/ml); for inhibition at 50 µM: 50 μM (B 20,6 μg/ml; C 12,8 μg/ml). On the procedure: as §1

[4] abbreviates: relative to compound A (sulfasalazine).

Take `O=C(O)c1cc(/N=N/c2ccc(S(=O)(=O)Nc3ccccn3)cc2)ccc1O` [A, sulfasalazine, reference compound]: the IC50 in assay [1] (Human placenta) was 95 µM and 95.4 µM. This molecule registered an inhibition at 50 µM in assay [2] (Rat colon) of 47.8%.

For the molecule `O=C(O)Cc1cc(N=Nc2ccc(S(=O)(=O)Nc3ccccn3)cc2)ccc1O` [B, 2-hydroxy-5-[4-[[(2-pyridinyl)amino]sulfonyl]phenylazo]benzeneacetic acid], the inhibition at 2 µM in assay [3] (Guinea pig colon) came out at 58.7%; in assay [3] (Guinea pig duodenum), 68.3%; in assay [3] (Guinea pig kidney), 53.8%; in assay [2] (Rat colon), 53.3%; in assay [2] (Rat kidney) it was 94.1%; in assay [2] (Rat lung) it was 85.2%. This molecule also showed an inhibition at 2 µM in assay [2] (Rat stomach) of 67.2%. Moreover, the inhibition at 50 µM came to 65.9% in assay [3] (Guinea pig kidney) and 87.5% in assay [1] (Human placenta, 50 μM (20,6 μg/ml)). Further, the IC50 in assay [1] (Human placenta) is 1.9 µM and 1.89 µM. Besides, the “times as active as the known compound A” value in assay [1] (setting [4]) stood at 50 times.

With `O=C(O)Cc1cc(N=Nc2ccccc2)ccc1O` [C, 2-hydroxy-5-phenylazo-benzeneacetic acid], the inhibition at 50 µM came out at 45.4% in assay [3] (Guinea pig kidney) and 71.3% in assay [2] (Rat colon). Also, the “activity compared with compound A” value in assay [2] (setting [4]) was “significantly more active than compound A”.
